Test results reported in patent publication US7115382B1, “Method for detecting IGFBP-4 protease without detecting IGFBP-4 protease/proMBP Complex” (Mayo Foundation for Medical Education and Research, priority 1999, dated 2006).

Test system: HEK 293 cells
Assay: Flow cytometry of PAPP-A binding to the cell surface
Type: cell-based, human
Conditions: HEK 293 cells transfected with rPAPP-A cDNA, mAb 234-2 detection
Method: Flow cytometry was used to assess the binding of PAPP-A to the cell surface of HEK 293 cells either transfected with empty expression vector or with the vector containing cDNA encoding rPAPP-A (see Example 4 for a description of vectors and transfections). […] Fifty μl of the cell suspension was incubated with primary antibody (final concentration 5 μg/ml purified PAPP-A specific mAb 234-2) on ice for 30 min. Cells were then washed three times with L15/FBS and incubated with fluorescein isothiocyanate-conjugated goat anti-mouse IgG (heavy and light chain, Zymed Laboratories, San Francisco, Calif.) for 30 min on ice. Cells were fixed in buffer with 1% formaldehyde before flow cytometry on a Becton Dickinson instrument. […] Similar results were obtained with other PAPP-A monoclonal antibodies (234-3, 234-4, 234-5, and 234-7).

**Q.** “PAPP-A: pregnancy-associated plasma protein-A, the IGF-dependent IGFBP-4 protease” was tested. Which “Binding to the cell surface” value did it give?
**A.** Its value is “binds to the surface of HEK 293 cells”.
